This is an account of results in the supplement of paper PMC10307832.

What all share (test): relative viability (nuclei count vs DMSO), 5 days (fraction); higher = more cells survive
Compound in assay [1]: CCC1=CN=CN=C1N2CCN(CC2)CC3=NC4=C(N3)C=C(C=C4)C(F)(F)F + CC(=O)c1c(C)c2cnc(Nc3ccc(N4CCNCC4)cn3)nc2n(C2CCCC2)c1=O [Palbociclib] (partner 0.5 µM)
The procedure, abridged: (§1)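 One day after seeding in 1536-well plates, lung cancer cell lines were dosed by pin tool. Dosing was either single-drug or a fixed anchor-drug dose plus five library-drug doses (not always all listed) in √10 steps. After 5 days, nuclei were stained in one fix-and-stain step and counted on 4× images, and relative viability is the nuclei count of treated wells over that of vehicle wells, given as the median of duplicate plates.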

Compound in assay [2]: CCn1c(-c2nonc2N)nc2cnc(Oc3cccc(NC(=O)c4ccc(OCCN5CCOCC5)cc4)c3)cc21 + CC(C)C[C@H](NC(=O)[C@H](Cc1ccccc1)NC(=O)c1cnccn1)B(O)O [Bortezomib] (partner 0.002 µM)
In short, it runs like this: as §1

Compound in assay [3]: CCn1c(-c2nonc2N)nc2cnc(Oc3cccc(NC(=O)c4ccc(OCCN5CCOCC5)cc4)c3)cc21 + COc1cc2c(Oc3ccc(NC(=O)C4(C(=O)Nc5ccc(F)cc5)CC4)cc3F)ccnc2cc1OCCCN1CCOCC1 [Foretinib] (partner 0.25 µM)
In short, it runs like this:
as §1

Compound in assay [4]: CCn1c(-c2nonc2N)nc2cnc(Oc3cccc(NC(=O)c4ccc(OCCN5CCOCC5)cc4)c3)cc21 + CS(=O)(=O)CCNCc1ccc(-c2ccc3ncnc(Nc4ccc(OCc5cccc(F)c5)c(Cl)c4)c3c2)o1 [Lapatinib] (partner 2 µM)
The procedure, abridged: as §1

On to COR-L 105, for which the relative viability stood at 0.416 in assay [1] (first compound 0.04 µM); 0.444 in assay [1] (first compound 0.1265 µM); 0.371 in assay [1] (first compound 0.4 µM); 0.363 in assay [1] (first compound 1.265 µM); 0.428 in assay [1] (first compound 4 µM); 0.734 in assay [2] (first compound 0.04 µM). The relative viability in assay [2] (first compound 0.1265 µM) was 0.625; in assay [2] (first compound 0.4 µM), 0.519; in assay [2] (first compound 1.265 µM) it was 0.319; in assay [2] (first compound 4 µM), 0.319; in assay [3] (first compound 0.04 µM), 1.25; in assay [3] (first compound 0.1265 µM) it was 1. In addition, the relative viability in assay [3] (first compound 0.4 µM) came to 0.874; in assay [3] (first compound 1.265 µM) it was 0.575; in assay [3] (first compound 4 µM), 0.308; in assay [4] (first compound 0.04 µM) it was 0.327; in assay [4] (first compound 0.1265 µM) it was 0.412; in assay [4] (first compound 0.4 µM), 0.278. Moreover, the results for the relative viability in assay [4] (first compound 1.265 µM) and in assay [4] (first compound 4 µM) were 0.288 and 0.297, respectively.
Consider Calu-6, for which the relative viability in assay [2] (first compound 0.04 µM) was 1.03; in assay [2] (first compound 0.1265 µM) it was 0.922; in assay [2] (first compound 0.4 µM), 0.771; in assay [2] (first compound 1.265 µM), 0.5; in assay [2] (first compound 4 µM), 0.469; in assay [3] (first compound 0.04 µM), 1.03. Moreover, the relative viability in assay [3] (first compound 0.1265 µM) amounted to 0.832; in assay [3] (first compound 0.4 µM), 0.84; in assay [3] (first compound 1.265 µM) it was 0.568; in assay [3] (first compound 4 µM), 0.507; in assay [4] (first compound 0.04 µM), 1.22; in assay [4] (first compound 0.1265 µM) it was 0.932. Also, the results for the relative viability in assay [4] (first compound 0.4 µM), in assay [4] (first compound 1.265 µM) and in assay [4] (first compound 4 µM) were 0.985, 0.616 and 0.517, respectively.
Consider ChaGo-K-1, for which the relative viability in assay [1] (first compound 0.04 µM) was determined as 0.976; in assay [1] (first compound 0.1265 µM), 0.946; in assay [1] (first compound 0.4 µM), 0.929; in assay [1] (first compound 1.265 µM), 0.907; in assay [1] (first compound 4 µM) it was 0.881; in assay [2] (first compound 0.04 µM), 1.45. For the same cell line, the relative viability was 0.892 in assay [2] (first compound 0.1265 µM); 0.752 in assay [2] (first compound 0.4 µM); 0.688 in assay [2] (first compound 4 µM); 0.97 in assay [3] (first compound 0.04 µM); 0.942 in assay [3] (first compound 0.1265 µM); 0.908 in assay [3] (first compound 0.4 µM). Further, the relative viability was found to be 0.769 in assay [3] (first compound 1.265 µM) and 0.856 in assay [3] (first compound 4 µM).
With EBC-1, the relative viability was determined as 0.771 in assay [2] (first compound 0.04 µM); 0.566 in assay [2] (first compound 0.1265 µM); 0.537 in assay [2] (first compound 0.4 µM); 0.458 in assay [2] (first compound 1.265 µM); 0.342 in assay [2] (first compound 4 µM); 0.0933 in assay [3] (first compound 0.04 µM). The relative viability was 0.0951 in assay [3] (first compound 0.1265 µM); 0.0949 in assay [3] (first compound 0.4 µM); 0.0808 in assay [3] (first compound 1.265 µM); 0.0597 in assay [3] (first compound 4 µM); 0.224 in assay [4] (first compound 0.04 µM); 0.206 in assay [4] (first compound 0.1265 µM). Also, the relative viability came to 0.196 in assay [4] (first compound 0.4 µM), 0.179 in assay [4] (first compound 1.265 µM) and 0.197 in assay [4] (first compound 4 µM).
As for EKVX, the relative viability in assay [1] (first compound 0.04 µM) came out at 0.405; in assay [1] (first compound 0.1265 µM), 0.387; in assay [1] (first compound 0.4 µM), 0.325; in assay [1] (first compound 1.265 µM), 0.337; in assay [1] (first compound 4 µM) it was 0.377; in assay [2] (first compound 0.04 µM), 1.22. Also, the relative viability in assay [2] (first compound 0.1265 µM) came out at 1.05; in assay [2] (first compound 0.4 µM), 0.902; in assay [2] (first compound 1.265 µM), 0.932; in assay [2] (first compound 4 µM), 1.02; in assay [3] (first compound 0.04 µM) it was 0.889; in assay [3] (first compound 0.1265 µM), 0.686. For the same cell line, the relative viability in assay [3] (first compound 0.4 µM) worked out at 0.708; in assay [3] (first compound 1.265 µM), 0.445; in assay [3] (first compound 4 µM), 0.735; in assay [4] (first compound 0.04 µM), 0.446; in assay [4] (first compound 0.1265 µM) it was 0.221; in assay [4] (first compound 0.4 µM), 0.177. The relative viability in assay [4] (first compound 1.265 µM) amounted to 0.197; in assay [4] (first compound 4 µM), 0.229.
Consider EMC-BAC-2, for which the relative viability was found to be 0.483 in assay [1] (first compound 0.04 µM); 0.532 in assay [1] (first compound 0.1265 µM); 0.533 in assay [1] (first compound 0.4 µM); 0.463 in assay [1] (first compound 1.265 µM); 0.554 in assay [1] (first compound 4 µM); 1.18 in assay [2] (first compound 0.04 µM). Moreover, the relative viability is 0.967 in assay [2] (first compound 0.1265 µM); 0.792 in assay [2] (first compound 0.4 µM); 0.731 in assay [2] (first compound 1.265 µM); 0.442 in assay [2] (first compound 4 µM); 0.988 in assay [3] (first compound 0.04 µM); 1 in assay [3] (first compound 0.1265 µM). In addition, the relative viability worked out at 0.973 in assay [3] (first compound 0.4 µM); 0.644 in assay [3] (first compound 1.265 µM); 0.565 in assay [3] (first compound 4 µM); 0.931 in assay [4] (first compound 0.04 µM); 0.955 in assay [4] (first compound 0.1265 µM); 0.543 in assay [4] (first compound 0.4 µM). Also, the relative viability in assay [4] (first compound 1.265 µM) amounted to 0.645; in assay [4] (first compound 4 µM) it was 0.588.
As for EPLC-272H, the relative viability in assay [1] (first compound 0.04 µM) was 0.338; in assay [1] (first compound 0.1265 µM), 0.302; in assay [1] (first compound 0.4 µM) it was 0.324; in assay [1] (first compound 1.265 µM) it was 0.318; in assay [1] (first compound 4 µM) it was 0.327; in assay [2] (first compound 0.04 µM) it was 1.02. Further, the relative viability in assay [2] (first compound 0.1265 µM) is 1.21; in assay [2] (first compound 0.4 µM) it was 0.841; in assay [2] (first compound 1.265 µM) it was 0.645; in assay [2] (first compound 4 µM), 0.783; in assay [3] (first compound 0.04 µM) it was 0.829; in assay [3] (first compound 0.1265 µM), 0.766. Further, the relative viability in assay [3] (first compound 0.4 µM) was determined as 0.753; in assay [3] (first compound 1.265 µM), 0.74; in assay [3] (first compound 4 µM) it was 0.716; in assay [4] (first compound 0.04 µM), 1.46; in assay [4] (first compound 0.1265 µM), 0.903; in assay [4] (first compound 0.4 µM), 0.796. Besides, the relative viability turned out to be 0.187 in assay [4] (first compound 1.265 µM) and 0.827 in assay [4] (first compound 4 µM).
HCC-44: the relative viability in assay [1] (first compound 0.04 µM) worked out at 0.965; in assay [1] (first compound 0.1265 µM), 0.956; in assay [1] (first compound 0.4 µM), 0.991; in assay [1] (first compound 1.265 µM), 0.937; in assay [1] (first compound 4 µM), 0.859; in assay [2] (first compound 0.04 µM), 0.889. Also, the relative viability is 0.902 in assay [2] (first compound 0.1265 µM); 0.56 in assay [2] (first compound 0.4 µM); 0.305 in assay [2] (first compound 1.265 µM); 0.248 in assay [2] (first compound 4 µM); 1.07 in assay [4] (first compound 0.04 µM); 1.1 in assay [4] (first compound 0.1265 µM). For the same cell line, the relative viability in assay [4] (first compound 0.4 µM) worked out at 0.622; in assay [4] (first compound 1.265 µM), 0.342; in assay [4] (first compound 4 µM), 0.368.
